Values of other authors, collected in patent US6887894B2, “Use of lipoic acid for improving the bioavailability of mineral salts” (BASF Aktiengesellschaft, priority 2000, dated 2005).

Key:
[1] = in vivo; cited from earlier work
[2] = in vivo; cited from earlier work; remark: listed apart in the source

Row | SMILES | bioavailability of Zn2+ from organic or inorganic sources [1] | effects on Zn bioavailability (results of previous studies) [2]
1 | [Cl-].[Cl-].[Zn+2] [ZnCl2] | roughly comparable | 
2 | O=C(O)C(=O)O [oxalic acid] |  | not uniform
3 | O=C(O)c1ccccn1 [picolinic acid] |  | not uniform
